Measurements: patent US12215354B2, “Differentiation of human embryonic stem cells into single hormonal insulin positive cells” (Janssen Biotech, Inc., priority 2011, dated 2025)

System: human embryonic stem cell line H1
Experiment: Real-time PCR gene expression, BMP inhibition and PKC activation at S3 (Example 2)
Type: cell-based
Conditions: 50 nM compared with 200 nM at S3
Procedure: Cells of the human embryonic stem cell line H1 were harvested at various passages (passage 40 to passage 52) and were seeded as single cells at a density of 100,000 cells/cm^2 on MATRIGEL™ (1:30 dilution) coated dishes in mTesr™1 media supplemented with 10 μM of Y27632. Forty eight hours post-seeding, cultures were differentiated into cells of the pancreatic endocrine lineage as follows: • a. Stage 1 (Definitive Endoderm (DE)—3 days): Prior to start of DE, the cultures were washed and incubated with incomplete PBS (no Mg or Ca) for 30 seconds followed by addition of the stage 1 media. Human embryonic stem cells cultured as single cells on MATRIGEL™-coated dishes were treated with MCDB-131 medium supplemented with 0.1% fatty acid-free BSA, 0.0012 g/ml sodium bicarbonate, 1× GLUTAMAX™, and 2.5 mM D-Glucose, 100 ng/ml GDF8, and […] MCX compound (GSK3B inhibitor) for one day. Cells were then treated with MCDB-131 medium supplemented with 0.1% fatty acid-free BSA, 0.0012 g/ml sodium bicarbonate, 1× GLUTAMAX™, 2.5 mM glucose, and 100 ng/ml GDF8 for days 2-3. • b. […]
mRNA was collected at S2-S4 for all the conditions listed above and analyzed using real-time PCR. […]

c1ccc2c(-c3cnn4cc(-c5ccc(N6CCNCC6)cc5)cnc34)ccnc2c1 [LDN-193189]
induction of endocrine markers (chromogranin and NGN3): as effective as 200 nM LDN-193189
